Measurements as given in PMC2806265, “Divergence of allosteric effects of rapacuronium on binding and function of muscarinic receptors” (BMC Pharmacology, 2009).
Marks after values point to notes of the source that are not given here.

Key:
M1 muscarinic receptor [1] = target: T1, M1 muscarinic receptor (Homo sapiens, UniProt P11229); assay: [3H]ACh saturation binding
T1 construct: host or cells: CHO cells, stably transfected; membrane preparation
T1 sequence (P11229 1-460): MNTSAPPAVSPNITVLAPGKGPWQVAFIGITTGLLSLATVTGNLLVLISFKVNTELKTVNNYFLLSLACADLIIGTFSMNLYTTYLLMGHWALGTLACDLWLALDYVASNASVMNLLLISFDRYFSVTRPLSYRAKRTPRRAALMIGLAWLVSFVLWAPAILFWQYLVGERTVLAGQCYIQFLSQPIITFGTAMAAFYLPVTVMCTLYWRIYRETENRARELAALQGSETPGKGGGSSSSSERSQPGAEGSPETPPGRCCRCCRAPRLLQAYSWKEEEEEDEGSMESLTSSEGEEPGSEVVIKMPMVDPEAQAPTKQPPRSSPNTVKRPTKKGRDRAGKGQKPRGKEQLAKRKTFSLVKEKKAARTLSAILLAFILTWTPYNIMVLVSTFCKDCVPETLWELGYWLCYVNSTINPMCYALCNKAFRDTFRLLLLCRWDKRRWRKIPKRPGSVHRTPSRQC
From the text: (§1) BMAX, maximum binding capacity; KD, equilibrium dissociation constant.

M3 muscarinic receptor [2] = target: T2, M3 muscarinic receptor (Homo sapiens, UniProt P20309); assay: [3H]ACh saturation binding
T2 construct: host or cells: CHO cells, stably transfected; membranes
T2 sequence (P20309 whole entry): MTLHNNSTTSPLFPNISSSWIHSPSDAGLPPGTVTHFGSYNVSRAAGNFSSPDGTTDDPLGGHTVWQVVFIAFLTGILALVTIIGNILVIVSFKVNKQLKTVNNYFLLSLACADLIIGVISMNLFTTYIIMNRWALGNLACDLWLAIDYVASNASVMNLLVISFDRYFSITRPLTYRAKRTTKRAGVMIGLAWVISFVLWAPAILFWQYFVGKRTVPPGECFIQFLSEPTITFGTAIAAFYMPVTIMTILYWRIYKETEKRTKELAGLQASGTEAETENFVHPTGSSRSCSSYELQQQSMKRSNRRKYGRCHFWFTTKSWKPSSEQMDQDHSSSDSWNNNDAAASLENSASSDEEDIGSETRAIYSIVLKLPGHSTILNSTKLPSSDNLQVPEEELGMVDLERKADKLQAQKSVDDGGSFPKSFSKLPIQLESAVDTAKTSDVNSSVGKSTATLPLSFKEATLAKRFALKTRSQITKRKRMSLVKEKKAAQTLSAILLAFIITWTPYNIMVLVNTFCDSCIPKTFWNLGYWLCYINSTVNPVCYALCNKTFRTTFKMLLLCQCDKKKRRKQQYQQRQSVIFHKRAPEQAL
From the text: as §1

M1 muscarinic receptor [3] = target: T1, M1 muscarinic receptor; assay: Effect of rapacuronium on low-affinity ACh binding ([3H]NMS + GTPγS + ACh)
From the text: (§2) Data are expressed as percent of specific binding in the absence of rapacuronium. […] Data are means ± SE from 3 independent experiments performed in quadruplicates. Curves are fits of Eq. 3 (circles) and Eq. 4 (squares and triangles) to data prior to normalization.

M3 muscarinic receptor [4] = target: T2, M3 muscarinic receptor; assay: as above
From the text: as §2

M3 muscarinic receptor [5] = target: T2, M3 muscarinic receptor; assay: biochemical; conditions: for EMAX of ACh on [^35S]GTPγS binding: fold of basal
Procedure: For determination of [^35S]GTPγS binding to G-proteins in membranes a final concentration of 200 pM (M1, M3 and M5 receptors) or 500 pM (M2 and M4 receptors) of [^35S]GTPγS was used. Incubation medium was supplemented with 5 μM (M1, M3 and M5 receptors) or 50 μM (M2 and M4 receptors) GDP. […] Incubation with [^35S]GTPγS was carried out for 20 min and free ligand was removed by filtration as described above. Filtration and washing with ice-cold water lasted for 9 s (wash-aspirate button time).

M2 muscarinic receptor [6] = target: T3, M2 muscarinic receptor (Homo sapiens, UniProt P08172); assay: [3H]NMS dissociation
T3 sequence (P08172 1-466): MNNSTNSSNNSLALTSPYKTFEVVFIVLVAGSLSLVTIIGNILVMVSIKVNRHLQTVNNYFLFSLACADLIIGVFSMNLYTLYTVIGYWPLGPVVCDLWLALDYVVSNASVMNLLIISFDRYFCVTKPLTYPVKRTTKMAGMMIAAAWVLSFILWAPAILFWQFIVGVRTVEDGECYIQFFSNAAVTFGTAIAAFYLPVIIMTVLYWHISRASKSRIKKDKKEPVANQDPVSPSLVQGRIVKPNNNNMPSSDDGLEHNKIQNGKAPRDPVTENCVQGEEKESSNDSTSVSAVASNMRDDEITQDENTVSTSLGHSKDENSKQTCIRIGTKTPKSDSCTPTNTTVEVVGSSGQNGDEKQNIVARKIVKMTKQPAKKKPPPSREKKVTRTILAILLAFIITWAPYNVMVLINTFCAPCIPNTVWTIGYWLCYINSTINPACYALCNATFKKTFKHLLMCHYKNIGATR
From the text: y, radioligand binding at time x normalized to binding at time 0; koff1 and koff2, dissociation rate constants; f2, fraction of binding site with dissociation rate constant koff2. When both Eq. 7a and 7b were fitted to data the better fit was chosen based on sum of squares F-test and runs test.

M4 muscarinic receptor = target: T4, M4 muscarinic receptor (Homo sapiens, UniProt P08173); assay: [3H]NMS saturation binding
T4 sequence (P08173 1-479): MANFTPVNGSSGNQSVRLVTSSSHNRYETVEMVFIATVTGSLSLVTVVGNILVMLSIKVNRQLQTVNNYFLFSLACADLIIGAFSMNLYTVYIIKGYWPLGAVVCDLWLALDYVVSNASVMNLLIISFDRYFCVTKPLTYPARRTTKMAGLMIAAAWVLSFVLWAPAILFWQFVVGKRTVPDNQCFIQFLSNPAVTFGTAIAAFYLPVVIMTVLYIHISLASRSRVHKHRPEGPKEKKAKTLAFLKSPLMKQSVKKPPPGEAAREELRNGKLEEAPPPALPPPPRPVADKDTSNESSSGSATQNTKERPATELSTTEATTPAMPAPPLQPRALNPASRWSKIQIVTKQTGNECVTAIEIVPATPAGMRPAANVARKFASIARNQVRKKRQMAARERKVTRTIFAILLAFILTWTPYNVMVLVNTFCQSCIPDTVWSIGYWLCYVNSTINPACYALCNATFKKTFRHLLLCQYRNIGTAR

M2 muscarinic receptor [7] = target: T3, M2 muscarinic receptor; assay: [3H]ACh saturation binding; design: host or cells: CHO cells, stably transfected; membrane preparation
From the text: as §1

## C=CC[N+]1([C@H]2C[C@H]3[C@@H]4CC[C@H]5C[C@H](OC(C)=O)[C@@H](N6CCCCC6)C[C@]5(C)[C@H]4CC[C@]3(C)[C@H]2OC(=O)CC)CCCCC1 [rapacuronium]
M1 muscarinic receptor [1]; + 10 μM rapacuronium
  BMAX of [^3H]ACh: 0.33 ± 0.05 fmol/μg of protein
M1 muscarinic receptor [1]; + 100 μM rapacuronium
  BMAX of [^3H]ACh: 0.32 ± 0.05 fmol/μg of protein
M3 muscarinic receptor [2]; + 10 μM rapacuronium
  BMAX of [^3H]ACh: 0.40 ± 0.04 fmol/μg of protein
M3 muscarinic receptor [2]; + 100 μM rapacuronium
  BMAX of [^3H]ACh: 0.37 ± 0.05 fmol/μg of protein
M1 muscarinic receptor [3]
  Kd: 4.68 µM
M1 muscarinic receptor [3]; M1, negative value = negative cooperativity
  pβ, cooperativity with ACh low affinity binding: -1.32 ± 0.06
M3 muscarinic receptor [4]; M3
  decrease in ACh low-affinity binding (cooperativity): 16 fold
M3 muscarinic receptor [4]; M3, negative value = negative cooperativity
  pβ, cooperativity with ACh low affinity binding: -1.20 ± 0.07
M3 muscarinic receptor [4]; read-out: pKA of rapacuronium (converted)
  Kd: 17 µM
M3 muscarinic receptor [5]; 0.1 μM rapacuronium
  decrease in ACh EC50: 2 fold
M3 muscarinic receptor [5]; 1 μM rapacuronium
  decrease in ACh EC50: 2 fold
M3 muscarinic receptor [5]; 10 μM rapacuronium
  increase in ACh EC50: about 3 fold
M3 muscarinic receptor [5]; + 0.1 μM rapacuronium
  EMAX of ACh on [^35S]GTPγS binding: 2.78 ± 0.11
M3 muscarinic receptor [5]; + 1 μM rapacuronium
  EMAX of ACh on [^35S]GTPγS binding: 2.52 ± 0.08
M3 muscarinic receptor [5]; + 10 μM rapacuronium
  EMAX of ACh on [^35S]GTPγS binding: 2.12 ± 0.09
M3 muscarinic receptor [5]; rapacuronium alone, normalized to absence of rapacuronium
  EMAX of rapacuronium on [^35S]GTPγS binding: 0.75 ± 0.07
M3 muscarinic receptor [5]; rapacuronium alone, read-out: EC50 of lowering [^35S]GTPγS binding
  EC50: 76 µM
M3 muscarinic receptor [5]; read-out: increase in ACh EMAX, 0.1 μM rapacuronium
  Emax at 0.1 µM: ~60%
M3 muscarinic receptor [5]; read-out: increase in ACh EMAX, 1 μM rapacuronium
  Emax at 1 µM: ~35%
M2 muscarinic receptor [6]; 100 μM rapacuronium
  decrease in rate of [^3H]NMS dissociation: 7 fold
M2 muscarinic receptor [6]; + 100 μM rapacuronium
  f2, fraction of sites with faster dissociation: 23 ± 5%
  koff1 of [^3H]NMS dissociation: 0.026 ± 0.002* min^-1
  koff2 of [^3H]NMS dissociation: 0.0127 ± 0.00183 s⁻¹
M4 muscarinic receptor; + 10 μM rapacuronium
  BMAX of [^3H]NMS: 1.17 ± 0.13 fmol/μg of protein
M4 muscarinic receptor; + 100 μM rapacuronium
  BMAX of [^3H]NMS: 1.06 ± 0.10 fmol/μg of protein
M2 muscarinic receptor [7]; + 10 μM rapacuronium
  BMAX of [^3H]ACh: 0.74 ± 0.07 fmol/μg of protein
M2 muscarinic receptor [7]; + 100 μM rapacuronium
  BMAX of [^3H]ACh: 0.77 ± 0.08 fmol/μg of protein
